Assay results: PubChem BioAssay AID1745860

Biological target: Sodium-dependent noradrenaline transporter (Homo sapiens) (UniProt P23975)
Assay: SLC6A2 noradrenaline transporter inhibitors, dose response, HEK293 JumpIn overexpressing cells, impedance (AID 1745860)
Conditions: HEK293 JumpIn SLC6A2 OE, impedance TRACT

Sequence of Sodium-dependent noradrenaline transporter (Homo sapiens) (P23975 whole entry, looked up): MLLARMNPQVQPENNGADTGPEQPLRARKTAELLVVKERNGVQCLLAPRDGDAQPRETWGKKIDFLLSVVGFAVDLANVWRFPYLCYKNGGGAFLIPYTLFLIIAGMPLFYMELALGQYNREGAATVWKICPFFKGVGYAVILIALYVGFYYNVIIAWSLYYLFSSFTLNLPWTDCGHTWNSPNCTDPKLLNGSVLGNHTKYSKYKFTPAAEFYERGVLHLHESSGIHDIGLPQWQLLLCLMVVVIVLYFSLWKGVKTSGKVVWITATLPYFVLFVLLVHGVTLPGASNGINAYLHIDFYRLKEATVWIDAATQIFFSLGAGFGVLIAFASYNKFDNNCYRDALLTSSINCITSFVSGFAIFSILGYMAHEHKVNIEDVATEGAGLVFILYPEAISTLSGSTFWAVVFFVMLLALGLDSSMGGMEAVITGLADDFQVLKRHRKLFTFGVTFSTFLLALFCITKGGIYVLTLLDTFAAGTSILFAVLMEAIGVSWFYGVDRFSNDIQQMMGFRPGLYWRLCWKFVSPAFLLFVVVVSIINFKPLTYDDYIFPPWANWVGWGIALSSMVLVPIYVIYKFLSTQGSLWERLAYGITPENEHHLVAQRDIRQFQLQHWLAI

IC50: 4 µM
Compound: CNC[C@H](O)c1ccc(O)c(O)c1
